Data taken from US11787785B2 (NOVARTIS AG, priority 2021, dated 2023).

Target: T1, WIZ protein (HiBit-WIZ fusion protein) (Homo sapiens, UniProt O95785+Q96SW2)
T1 construct: expressed in transfected cells
Experiment: Quantification of WIZ protein levels in HiBit tag fusion protein assay (WIZ HiBit assay in 293T cells)
Type: cell-based
Conditions: for Dmax at 25 µM / remaining activity at 25 µM: HEK-293T, 293T cells; for Dmax at 25 µM: 100 − Amax, read-out: % degradation of WIZ (100 − Amax); for remaining activity at 25 µM: DMSO-normalized, curve-fitted percentage of WIZ-HiBit remaining at 25 uM, read-out: WIZ Amax; for DC50: WIZ HiBit assay in 293T cells, 10-point, 5-fold dose response, highest concentration 25 μM, about 18 hours, read-out: WIZ AC50
Procedure, shortened: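 Luminescence after LgBit complementation quantified remaining HiBit-WIZ in lysates of single-copy stable 293T lines. Cells dosed ~18 h at 37 °C with 10-point, 5-fold dilutions (highest 25 μM); DMSO set to 100%, fitted curve gave % remaining at 25 μM (Amax).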

T1 sequence (O95785 whole entry, the tested form may be a part): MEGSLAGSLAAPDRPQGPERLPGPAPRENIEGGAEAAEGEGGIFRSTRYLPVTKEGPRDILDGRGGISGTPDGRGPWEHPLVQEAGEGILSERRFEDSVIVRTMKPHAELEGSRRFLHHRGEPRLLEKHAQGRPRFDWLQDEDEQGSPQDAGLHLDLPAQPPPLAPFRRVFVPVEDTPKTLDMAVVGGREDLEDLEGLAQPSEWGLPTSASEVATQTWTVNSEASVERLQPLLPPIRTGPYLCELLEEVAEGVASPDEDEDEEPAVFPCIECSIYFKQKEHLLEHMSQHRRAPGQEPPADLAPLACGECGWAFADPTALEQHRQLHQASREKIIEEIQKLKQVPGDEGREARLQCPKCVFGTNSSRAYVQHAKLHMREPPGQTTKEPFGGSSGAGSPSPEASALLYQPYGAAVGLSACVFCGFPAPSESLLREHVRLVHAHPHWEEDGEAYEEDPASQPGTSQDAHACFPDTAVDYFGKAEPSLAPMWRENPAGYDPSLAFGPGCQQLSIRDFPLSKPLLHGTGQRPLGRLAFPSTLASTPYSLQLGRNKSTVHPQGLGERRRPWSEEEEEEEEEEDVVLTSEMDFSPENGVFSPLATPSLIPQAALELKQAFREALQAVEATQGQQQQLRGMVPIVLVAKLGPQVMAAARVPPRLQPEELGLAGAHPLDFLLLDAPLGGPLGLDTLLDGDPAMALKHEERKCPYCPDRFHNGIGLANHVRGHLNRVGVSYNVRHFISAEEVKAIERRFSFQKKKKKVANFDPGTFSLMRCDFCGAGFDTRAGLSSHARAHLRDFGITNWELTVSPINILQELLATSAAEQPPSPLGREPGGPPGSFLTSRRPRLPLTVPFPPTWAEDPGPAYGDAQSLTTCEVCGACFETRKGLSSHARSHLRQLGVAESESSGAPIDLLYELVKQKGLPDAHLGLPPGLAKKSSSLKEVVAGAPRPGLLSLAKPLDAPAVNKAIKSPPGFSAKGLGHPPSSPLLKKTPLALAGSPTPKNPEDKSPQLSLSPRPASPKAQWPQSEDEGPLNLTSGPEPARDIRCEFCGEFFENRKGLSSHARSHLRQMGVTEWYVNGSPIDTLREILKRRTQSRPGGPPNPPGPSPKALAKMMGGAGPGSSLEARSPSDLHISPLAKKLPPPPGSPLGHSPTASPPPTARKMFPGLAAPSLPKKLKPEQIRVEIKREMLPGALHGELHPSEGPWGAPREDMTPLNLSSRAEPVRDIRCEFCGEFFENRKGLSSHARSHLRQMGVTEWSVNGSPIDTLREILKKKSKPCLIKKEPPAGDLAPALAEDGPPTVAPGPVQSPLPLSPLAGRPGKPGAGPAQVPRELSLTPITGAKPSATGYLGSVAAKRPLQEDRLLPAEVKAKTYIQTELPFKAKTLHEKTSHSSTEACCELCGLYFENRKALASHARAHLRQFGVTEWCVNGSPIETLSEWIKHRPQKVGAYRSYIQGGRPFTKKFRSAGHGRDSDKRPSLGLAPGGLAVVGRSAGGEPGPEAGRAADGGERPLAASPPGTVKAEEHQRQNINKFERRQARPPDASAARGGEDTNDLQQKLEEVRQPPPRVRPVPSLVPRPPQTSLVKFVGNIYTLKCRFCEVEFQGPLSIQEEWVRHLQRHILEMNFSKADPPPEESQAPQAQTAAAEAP
T1 sequence (Q96SW2 whole entry, the tested form may be a part): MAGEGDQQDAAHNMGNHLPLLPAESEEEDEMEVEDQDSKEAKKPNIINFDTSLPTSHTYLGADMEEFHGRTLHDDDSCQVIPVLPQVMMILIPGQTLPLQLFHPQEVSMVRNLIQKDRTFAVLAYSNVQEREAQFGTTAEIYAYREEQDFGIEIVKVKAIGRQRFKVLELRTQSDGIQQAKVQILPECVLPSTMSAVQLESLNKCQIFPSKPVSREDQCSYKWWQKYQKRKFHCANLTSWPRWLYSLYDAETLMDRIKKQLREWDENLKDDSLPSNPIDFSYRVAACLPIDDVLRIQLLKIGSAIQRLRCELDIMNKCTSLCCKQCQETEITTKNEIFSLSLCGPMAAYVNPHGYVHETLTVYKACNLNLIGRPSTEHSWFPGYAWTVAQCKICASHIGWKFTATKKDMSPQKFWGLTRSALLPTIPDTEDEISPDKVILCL
T1 sequence (Q16531 whole entry partner, the tested form may be a part): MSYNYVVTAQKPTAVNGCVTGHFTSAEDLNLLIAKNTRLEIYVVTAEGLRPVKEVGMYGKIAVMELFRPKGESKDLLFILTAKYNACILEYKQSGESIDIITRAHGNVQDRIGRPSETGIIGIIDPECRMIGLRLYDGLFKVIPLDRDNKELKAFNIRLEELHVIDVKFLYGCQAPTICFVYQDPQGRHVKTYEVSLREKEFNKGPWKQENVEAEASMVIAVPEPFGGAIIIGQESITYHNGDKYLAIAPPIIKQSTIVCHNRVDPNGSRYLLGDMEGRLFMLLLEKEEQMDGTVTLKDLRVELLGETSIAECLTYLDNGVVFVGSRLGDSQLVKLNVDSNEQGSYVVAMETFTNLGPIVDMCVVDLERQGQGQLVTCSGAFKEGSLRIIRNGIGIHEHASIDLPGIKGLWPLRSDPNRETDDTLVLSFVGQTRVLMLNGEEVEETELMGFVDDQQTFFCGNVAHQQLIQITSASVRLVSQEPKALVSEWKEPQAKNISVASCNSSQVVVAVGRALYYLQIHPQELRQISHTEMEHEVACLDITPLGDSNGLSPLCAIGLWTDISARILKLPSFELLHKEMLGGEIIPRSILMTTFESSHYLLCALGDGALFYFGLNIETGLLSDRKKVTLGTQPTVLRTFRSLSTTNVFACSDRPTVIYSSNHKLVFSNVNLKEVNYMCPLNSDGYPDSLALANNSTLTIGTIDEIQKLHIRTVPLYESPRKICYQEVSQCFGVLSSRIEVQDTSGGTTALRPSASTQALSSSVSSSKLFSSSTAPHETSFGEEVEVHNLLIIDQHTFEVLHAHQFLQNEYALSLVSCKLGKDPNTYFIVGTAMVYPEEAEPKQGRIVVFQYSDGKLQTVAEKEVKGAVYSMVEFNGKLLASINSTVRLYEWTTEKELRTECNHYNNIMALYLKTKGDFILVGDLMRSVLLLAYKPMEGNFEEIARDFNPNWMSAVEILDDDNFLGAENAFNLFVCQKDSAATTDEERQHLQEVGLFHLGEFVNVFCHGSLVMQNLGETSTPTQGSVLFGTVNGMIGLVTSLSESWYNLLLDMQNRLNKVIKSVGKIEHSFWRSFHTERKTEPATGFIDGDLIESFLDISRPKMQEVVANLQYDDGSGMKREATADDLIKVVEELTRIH

SMILES | Dmax at 25 µM [%] | remaining activity at 25 µM [%] | DC50 [nM]
CC(C)CN1CCN(Cc2ccn3ncc(N4CCC(=O)NC4=O)c3c2)[C@@H](C)C1 [Example 222] | 64 | 36 | 457
CC[C@H]1CN(Cc2ccn3ncc(N4CCC(=O)NC4=O)c3c2)CCN1CC1CCOCC1 [Example 227, (S)-1-(5-((3-ethyl-4-((tetrahydro-2H-pyran-4-yl)methyl)piperazin-1-yl)methyl)pyrazolo[1,5-a]pyridin-3-yl)dihydropyrimidine-2,4(1H,3H)-dione] | 60 | 40 | 956
C[C@H]1CN(Cc2ccn3ncc(N4CCC(=O)NC4=O)c3c2)CCN1CC(F)F [Example 327, (S)-1-(5-((4-(2,2-difluoroethyl)-3-methylpiperazin-1-yl)methyl)pyrazolo[1,5-a]pyridin-3-yl)dihydropyrimidine-2,4(1H,3H)-dione] | 54 | 46 | 653
CO[C@H]1C[C@H](CN2CCN(Cc3ccn4ncc(N5CCC(=O)NC5=O)c4c3)C[C@@H]2C)C1 [Example 316, 1-(5-(((S)-4-(((1r,3S)-3-methoxycyclobutyl)methyl)-3-methylpiperazin-1-yl)methyl)pyrazolo[1,5-a]pyridin-3-yl)dihydropyrimidine-2,4(1H,3H)-dione] | 83 | 17 | 61
CC(c1cccc(F)c1)N1CCC(Cc2ccn3ncc(N4CCC(=O)NC4=O)c3c2)CC1 (stereo not drawn) [Example 48, 1-(5-((1-(1-(3-fluorophenyl)ethyl)piperidin-4-yl)methyl)pyrazolo[1,5-a]pyridin-3-yl)dihydropyrimidine-2,4(1H,3H)-dione] | 68 | 32 | 61
CC(C)CN1CCCN(Cc2ccn3ncc(N4CCC(=O)NC4=O)c3c2)CC1 [Example 250, 1-(5-((4-isobutyl-1,4-diazepan-1-yl)methyl)pyrazolo[1,5-a]pyridin-3-yl)dihydropyrimidine-2,4(1H,3H)-dione] | 41 | 59 | 1350
O=C1CCN(c2cnn3ccc(CC4CCN(S(=O)(=O)Cc5ccccc5)CC4)cc23)C(=O)N1 [Example 88] | 78 | 22 | 181
O=C1CCN(c2cnn3ccc(CN4CCN(CC5CCOC5)CC4)cc23)C(=O)N1 (stereo not drawn) [Example 177] | 77 | 23 | 106
CC(C)N1CCN(Cc2ccn3ncc(N4CCC(=O)NC4=O)c3c2)CC1 [Example 166] | 66 | 34 | 632
O=C1CCN(c2cnn3ccc(CN4CCN5[C@@H](CCS5(=O)=O)C4)cc23)C(=O)N1 [Example 315, (S)-1-(5-((1,1-dioxidohexahydro-5H-isothiazolo[2,3-a]pyrazin-5-yl)methyl)pyrazolo[1,5-a]pyridin-3-yl)dihydropyrimidine-2,4(1H,3H)-dione] | 53 | 47 | 1020
O=C1CCN(c2cnn3ccc(CC4CCN(CCC5CCOCC5)CC4)cc23)C(=O)N1 [Example 11, 1-(5-((1-(2-(tetrahydro-2H-pyran-4-yl)ethyl)piperidin-4-yl)methyl)pyrazolo[1,5-a]pyridin-3-yl)dihydropyrimidine-2,4(1H,3H)-dione] | 84 | 16 | 55

Molecules with a lower DC50, results first:

Dmax at 25 µM [%] | remaining activity at 25 µM [%] | DC50 [nM] | SMILES
84 | 16 | 51 | CCCC(CCC)N1CCC(Cc2ccn3ncc(N4CCC(=O)NC4=O)c3c2)CC1 [Example 12, 1-(5-((1-(heptan-4-yl)piperidin-4-yl)methyl)pyrazolo[1,5-a]pyridin-3-yl)dihydropyrimidine-2,4(1H,3H)-dione]
81 | 19 | 44 | CCO[C@H]1CC[C@H](CN2CCC(Cc3ccn4ncc(N5CCC(=O)NC5=O)c4c3)CC2)CC1 [Example 266, 1-(5-((1-(((1r,4r)-4-ethoxycyclohexyl)methyl)piperidin-4-yl)methyl)pyrazolo[1,5-a]pyridin-3-yl)dihydropyrimidine-2,4(1H,3H)-dione]
61 | 39 | 34 | O=C1CCN(c2cnn3ccc(CC4CCN(Cc5nccs5)CC4)cc23)C(=O)N1 [Example 60, 1-(5-((1-(thiazol-2-ylmethyl)piperidin-4-yl)methyl)pyrazolo[1,5-a]pyridin-3-yl)dihydropyrimidine-2,4(1H,3H)-dione]
86 | 14 | 33 | CC(C)(C1CCOCC1)N1CCC(Cc2ccn3ncc(N4CCC(=O)NC4=O)c3c2)CC1 [Example 136, 1-(5-((1-(2-(tetrahydro-2H-pyran-4-yl)propan-2-yl)piperidin-4-yl)methyl)pyrazolo[1,5-a]pyridin-3-yl)dihydropyrimidine-2,4(1H,3H)-dione]
68 | 32 | 29 | O=C1CCN(c2cnn3ccc(CC4CCN(S(=O)(=O)N5CCCC5)CC4)cc23)C(=O)N1 [Example 297, 1-(5-((1-(pyrrolidin-1-ylsulfonyl)piperidin-4-yl)methyl)pyrazolo[1,5-a]pyridin-3-yl)dihydropyrimidine-2,4(1H,3H)-dione]
90 | 10 | 20 | O=C1CCN(c2cnn3ccc(CC4CCN(CC5CCOCC5)CC4)cc23)C(=O)N1 [Example 3, 1-(5-((1-((tetrahydro-2H-pyran-4-yl)methyl)piperidin-4-yl)methyl)pyrazolo[1,5-a]pyridin-3-yl)dihydropyrimidine-2,4(1H,3H)-dione]
66 | 34 | 16 | O=C1CCN(c2cnn3ccc(CC4CCN(CC(F)(F)C5CCCCC5)CC4)cc23)C(=O)N1 [Example 112, 1-(5-((1-(2-cyclohexyl-2,2-difluoroethyl)piperidin-4-yl)methyl)pyrazolo[1,5-a]pyridin-3-yl)dihydropyrimidine-2,4(1H,3H)-dione]
86 | 14 | 10 | C[C@@H]1CC(CN2CCN(Cc3ccn4ncc(N5CCC(=O)NC5=O)c4c3)CC2)C[C@H](C)O1 (stereo partly drawn) [Example 193, 1-(5-((4-(((2R,6S)-2,6-dimethyltetrahydro-2H-pyran-4-yl)methyl)piperazin-1-yl)methyl)pyrazolo[1,5-a]pyridin-3-yl)dihydropyrimidine-2,4(1H,3H)-dione]
84 | 15 | 9 | C[C@H]1C[C@H](Cc2ccn3ncc(N4CCC(=O)NC4=O)c3c2)CCN1CCC(F)(F)F [Example 276, 1-(5-(((2S,4R)-2-methyl-1-(3,3,3-trifluoropropyl)piperidin-4-yl)methyl)pyrazolo[1,5-a]pyridin-3-yl)dihydropyrimidine-2,4(1H,3H)-dione]
87 | 13 | 2 | C[C@H]1C[C@H](Cc2ccn3ncc(N4CCC(=O)NC4=O)c3c2)CCN1C[C@H]1C[C@@H](F)[C@@H](F)C1 [Example 304, 1-(5-(((2S,4R)-1-(((1r,3R,4S)-3,4-difluorocyclopentyl)methyl)-2-methylpiperidin-4-yl)methyl)pyrazolo[1,5-a]pyridin-3-yl)dihydropyrimidine-2,4(1H,3H)-dione]
